Molecules are shown by their SMILES.

The values below come from patent US10093646B2, “1-pyridazin-/triazin-3-yl-piper(-azine)/idine/pyrolidine derivatives and compositions thereof for inhibiting the activity of SHP2” (Novartis AG, priority 2014, dated 2018).

Sequence of SHP2 (Q06124 whole entry): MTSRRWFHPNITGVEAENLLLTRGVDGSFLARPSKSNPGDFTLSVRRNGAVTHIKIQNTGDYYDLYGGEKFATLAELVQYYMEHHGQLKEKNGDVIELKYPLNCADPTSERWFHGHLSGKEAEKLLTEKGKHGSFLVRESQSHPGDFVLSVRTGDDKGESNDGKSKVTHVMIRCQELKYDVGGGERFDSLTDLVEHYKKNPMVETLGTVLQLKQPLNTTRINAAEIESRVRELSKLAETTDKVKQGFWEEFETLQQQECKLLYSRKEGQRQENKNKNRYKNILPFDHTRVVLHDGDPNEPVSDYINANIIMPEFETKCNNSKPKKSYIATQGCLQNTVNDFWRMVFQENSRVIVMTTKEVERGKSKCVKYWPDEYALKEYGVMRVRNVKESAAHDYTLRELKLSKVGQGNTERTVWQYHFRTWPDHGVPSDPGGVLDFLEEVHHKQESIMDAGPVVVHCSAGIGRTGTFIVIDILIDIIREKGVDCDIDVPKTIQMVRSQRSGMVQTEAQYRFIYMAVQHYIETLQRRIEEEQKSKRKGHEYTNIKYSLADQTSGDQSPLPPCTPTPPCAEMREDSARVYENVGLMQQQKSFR

This assay has as its target SHP2 (Homo sapiens (Human), UniProt Q06124). The assay can be described thus: SHP2 Allosteric Inhibition Assay (DiFMUP prompt fluorescence). Type of assay: biochemical. The following applies: 0.5 nM SHP2 activated with 0.5 μM peptide IRS1_pY1172(dPEG8)pY1222, substrate DiFMUP. From the text:
SHP2 Allosteric Inhibition Assay
SHP2 is allosterically activated through binding of bis-tyrosyl-phosphorylated peptides to its Src Homology 2 (SH2) domains.
Regarding `Nc1nc(N2CCC3NCCC3C2)cnc1-c1cccc(Cl)c1Cl` (stereo not shown) [Example 10], inhibition was half-maximal at 908 nM (IC50). This lies in the sub-micromolar range.

Regarding `NCC1(c2ccccc2)CCN(c2cnc(-c3cccc(Cl)c3Cl)c(N)n2)CC1` [Example 12], inhibition was half-maximal at 65 nM (IC50).

`Nc1nc(N2CC3C(N)C3C2)cnc1-c1cccc(Cl)c1Cl` (stereo not shown) [Example 13]: half-maximal inhibition (IC50) was put at 65 nM. The same measure for `CCCC1(CN)CCN(c2cnc(-c3cccc(Cl)c3Cl)c(N)n2)CC1` [Example 15]: 75 nM; for `C[C@]1(N)CCN(c2cnc(-c3cccc(Cl)c3Cl)c(N)n2)C[C@@H]1O` [Example 16]: 93 nM. The result for `NCC1(c2ccncc2)CCN(c2cnc(-c3cccc(Cl)c3Cl)c(N)n2)CC1` [Example 17] reads 102 nM; that for `NCC1(c2cnccn2)CCN(c2cnc(-c3cccc(Cl)c3Cl)c(N)n2)CC1` [Example 18], 93 nM. The same measure for `NCC1(c2ccccn2)CCN(c2cnc(-c3cccc(Cl)c3Cl)c(N)n2)CC1` [Example 19]: 110 nM; for `Nc1nc(N2CC3CNCC32)cnc1-c1cccc(Cl)c1Cl` (stereo not shown) [Example 20]: 404 nM. On to `Nc1nc(N2CC3CNCC3C2)cnc1-c1cccc(Cl)c1Cl` (stereo not shown) [Example 21], for which the IC50 (in general, the point on the concentration scale where inhibition reaches its midpoint) amounted to 102 nM. This IC50 is about 4-fold lower than that of the compound before.
